Results published in ChEMBL document CHEMBL1150075, “Apiosporamide, a new antifungal agent from the coprophilous fungus Apiospora montagnei” (1994).
Active and inactive are the calls of the source. No cut-off for these calls is given here.

What was measured:
[1] = tested on: Ascobolus; assay: Antifungal activity against Ascobolus furfuraceus NRRL 6460 assessed as inhibition of radial growth rate at 200 ug/disk relative to control; type: functional; design: scale not given: the % may be the effect or the level left
[2] = tested on: Bacillus subtilis; assay: Antibacterial activity against Bacillus subtilis ATCC 6051 at 200 ug/disk; type: functional; settings: read-out: IZ
[3] = tested on: Staphylococcus aureus; assay: Antibacterial activity against Staphylococcus aureus ATCC 29213 at 200 ug/disk; type: functional; settings: read-out: IZ
[4] = tested on: Candida albicans; assay: Antifungal activity against Candida albicans ATCC 14053 at 200 ug/disk; type: functional, organism-based

C[C@H]1CC[C@@H]2[C@@H](C(=O)c3c(O)c([C@]4(O)CC[C@@H](O)[C@H]5O[C@H]54)c[nH]c3=O)[C@@H](C)C=C[C@H]2C1 [APIOSPORAMIDE]
Activity [1]: 53%
zone of inhibition at 200 µg/disc [2]: 32 mm
zone of inhibition at 200 µg/disc [3]: 21 mm
Activity [4]: inactive
